Drawing on patent US5736523A, “Antineoplastic heteronapthoquinones” (Biochem Pharma Inc., priority 1995, dated 1998), this text covers VLB/OV3 and IC50 for 21 compounds.

In the assay the test system is SKVLB (Ovarian; multidrug resistant). The assay can be described thus: In vitro cytotoxicity, microculture tetrazolium (MTT) assay, SKVLB. The class given is cell-based, human. To be noted: for VLB/OV3: ratio SKVLB / SKOV3. The procedure: In Vitro Cytotoxicity--Microculture Tetrazolium Assay
The microculture tetrazolium assay was used to test in vitro cytotoxicity. This assay is described in Plumb, J. A. et al., 1989 Cancer Research 49, 4435-4440, which is herein incorporated by reference. The cytotoxicity of compounds towards tumor cells is measured in vitro using the assay. This assay method is based upon the ability of live, but not dead cells to reduce the yellow water soluble dye 3-(4;5-dimethylthiazol-2-yl)-2,5-diphenyltetrazolium bromide (MTT) to its water insoluble purple formazan product.
Human Tumor Cell lines, used were:
SKVLB (Ovarian; multidrug resistant)--Dr. V. Ling, Ontario
The cells were maintained in exponential growth in culture in minimal essential media (MEM) supplemented with non-essential amino acids, and containing 15% (v/v) fetal bovine serum, 5 mM L-glutamine, 1 mM sodium pyruvate, and 0.1 U/ml insulin. All cell lines were grown at 37° C. in an atmosphere of 5% CO2 in air.
Test compounds: 20 mM in DMSO and diluted to a final concentration of 200 μM in culture medium before use.
The following is the generic description of the assay method. It should be noted that although the conditions described work well with the cells listed above, the initial plating density and the MTT concentration used should be verified for each new cell line used to test compounds.
For each assay, doxorubicin is included as an inter-assay standard. This allows us to monitor the behaviour of the assay in general, and in particular, to check that the SKVLB line has maintained its resistant phenotype.
The plate layout is done in the following manner: The assays are carried out in 96-well (8 well×12 well) microtiter plates. Serial dilutions of the compound are tested along the length of the plate. A 1:3 serial dilution of compound in culture medium covers a concentration range from 100 μM to 1.7 nM. Each concentration of compound is tested in quadruplet, allowing two compounds to be tested per plate. Wells containing no cells (blank) and cells with no test compound (control) are included on each plate.
Cells are plated out in 100 μl of culture medium in the microtiter plates at a density of around 1,500-4,000 cells per well. The plates are incubated overnight to allow the cells to become adherent after which the test compound is added (100 μl of appropriate dilution per well). The cells are incubated with test compound at 37° C. for 48 h after which the compound is replaced with fresh medium. After a further 48 h incubation at 37° C., 50 μl of MTT solution (2 mg/ml) is added to each well. The plates are incubated in the dark for 4 h at 37° C. after which the medium is removed. The MTT formazan product is extracted from the cells by the addition of 200 μl DMSO followed by 50 μl of Sorensen's buffer. The plates are shaken briefly and the absorbance at 570 nm is read using a Molecular Devices UV max plate reader. Curves are fit to the MTT assay data using a four parameter logistic equation, and the data are normalized to fit a 0% to 100% survival scale.

Where a name gives a salt, the structure may show the parent alone.

With `COC(=O)[C@H](CC(C)C)NC(=O)[C@@H](N)CO[C@H]1O[C@H](C(C)=O)CC2=C1C(=O)c1ccccc1C2=O` [BCH2000, (1S,2'S,3S,5'S)-Methyl-(1-O-[Serine-Leucine-Me ester]-5,10-dioxo-3,4,5,10-tetrahydro-1-H-naphtho [2,3-c]pyran-3-yl) ketone hydrochloride], the VLB/OV3 is on record as 69.89.
In the case of `COC(=O)C1(C(=O)OC)CC2=C(CO1)C(=O)c1ccccc1C2=O` [BCH1665, 3,3-bis-(methoxycarbonyl)-5,10-dioxo-3,4,5,10-tetrahydro-1H-naphtho-[2,3-c]-pyran], the VLB/OV3 worked out at 1.14.
Take `C[C@@H]1O[C@@H](OC2OC(C#N)CC3=C2C(=O)c2ccccc2C3=O)C[C@H](NC(=O)C(F)(F)F)[C@@H]1O` (mixture of isomers) [BCH1688, (1'-S,1-R,3-S) and (1'-S,1-S,3-R)-3-cyano-1-[2',3',6'-trideoxy-3'-trifluoroacetamido-4'-hydroxy-L-lyxohexopyranose)-5,10-dioxo-3,4,5,10-tetrahydronaphtho-[2,3-C] pyran-3-yl]: the VLB/OV3 came to 4.37.
For `CC(=O)[C@@H]1CC2=C(C(=O)c3ccc(O)cc3C2=O)[C@@H](O[C@H]2C[C@H](NC(=O)C(F)(F)F)[C@H](O)[C@H](C)O2)O1` [BCH1181, (1'S,1R,3S)-Methyl (5,10-dioxo-1-(2',3',6'-trideoxy-3'-trifluoroacetamido-L-lyxohexopyranose)-7-hydroxy-3,4,5,10-tetrahydro [2,3-C]pyran-3-yl) ketone], the VLB/OV3 turned out to be 3.75.
Turning to `CC(=O)[C@H]1CC2=C(C(=O)c3ccccc3C2=O)[C@H](O[C@H]2C[C@H](NC(=O)C(F)(F)F)[C@H](Br)[C@H](C)O2)O1` [BCH2047, (1S,3R,1'S)-Methyl-(1-[2',3',4',6'-tetradeoxy-3'-trifluoroacetamido-4'-bromo-L-lyxohexopyranose]-5,10-dioxo-3,4,5,10-tetrahydronaphthaleno-[2,3-c]pyran-3-yl) ketone], the VLB/OV3 is 31.
As for `COCC1(COC)CC2=C(C(=O)c3ccccc3C2=O)[C@H](O[C@H]2C[C@H](NC(=O)C(F)(F)F)[C@H](O)[C@H](C)O2)O1` [BCH1697], the VLB/OV3 was 3.57.
Take `CC(C)[C@@H]1CC2=C(C(=O)c3ccccc3C2=O)[C@@H](O[C@H]2C[C@H](NC(=O)C(F)(F)F)[C@H](O)[C@H](C)O2)O1` [BCH2053, (1'S,1R,3S)-5,10-dioxo-3-isopropyl-1-(2',3',6'-trideoxy-3'-trifluoroacetamido-L-lyxohexopyranose)-3,4,5,10-tetrahydro-1H-naphtho-[2,3-c]-pyran]: the VLB/OV3 is given as 4.48.
As to `CC(=O)C1CC2=C(C(=O)c3ccccc3C2=O)C(O[C@H]2C[C@H](NC(=O)C(F)(F)F)[C@H](OS(C)(=O)=O)[C@H](C)O2)O1` (mixture of isomers) [BCH2095, (1'-S,1-S,3-R) and (1'-S,1-R,3-S)-methyl-(1-[2',3',4',6' tetradeoxy-3'-trifluoroacetamido-4'-O-methane-sulfonyl-L-lyxohexopyranose)-5,10-dioxo-3,4,5,10 tetrahydronaphtho-[2,3-c]pyran-3-yl) ketone], the VLB/OV3 was found to be 8.16.
Regarding `CC(=O)[C@@H]1CC2=C(C(=O)c3ccccc3C2=O)[C@@H](O[C@@H]2O[C@@H](C)[C@@H](O)[C@@H](O)[C@H]2I)O1` [BCH2015, (1'S,1R,3S)-methyl-(1-[2',6'-dideoxy-3',4'-dihydroxy-2'-iodo-L-lyxohexopyranose]-5,10-dioxo-3,4,5,10-tetrahydronaphtho [2,3-c]-pyran-3-yl) ketone], the VLB/OV3 is reported as 3.19.
`CC(=O)[C@H]1CC2=C(C(=O)c3ccccc3C2=O)[C@H](O[C@@H]2O[C@@H](C)[C@@H](O)[C@@H](NC(=O)C(F)(F)F)C2I)O1` (stereo partly drawn) [BCH2022, (1'S,1S,3R)-methyl-(1-[2',3',6'-trideoxy-2'-iodo-3'-trifluoroacetamido-4'-hydroxy-L-lyxohexopyranose]-5,10-dioxo-3,4,5,10-tetrahydronaphtho-[2,3-c]-pyran-3-yl) ketone]: the VLB/OV3 came out at 4.23.
`COC[C@@H]1CC2=C(C(=O)c3ccccc3C2=O)[C@@H](O[C@H]2C[C@H](NC(=O)C(F)(F)F)[C@H](O)[C@H](C)O2)O1` [BCH1691, (1'S,1R,3S)-5,10-dioxo-3-methoxymethyl-1-(2',3',6'-trideoxy-3'-trifluoroacetamido-L-lyxohexopyranose)-3,4,5,10-tetrahydro-1H-naphtho-[2,3-c]-pyran]: the VLB/OV3 stood at 2.10.
Consider `COC1OC(C(C)=O)=CC2=C1C(=O)c1ccccc1C2=O` (stereo not shown) [BCH2129, 3-Aceto-5,10-dioxo-1-methoxy-5,10-dihydro-1H-naphtho-(2,3-c)-pyran], for which the VLB/OV3 is 2.95.
As for `CC[C@H]1CC2=C(C(=O)c3ccccc3C2=O)[C@H](O[C@H]2C[C@H](N)[C@H](O)[C@H](C)O2)O1` [BCH2021, (1'S,1S,3S)-5,10-dioxo-3-ethyl-1-(2',3',6'-trideoxy-3'-amino-L-lyxohexopyranose)-3,4,5,10-tetrahydro-1H-naphtho-[2,3-c]-pyran], the VLB/OV3 amounted to 3.74.
In the case of `CC(=O)CC1CC2=C(C(=O)c3cccc(O)c3C2=O)C(O[C@H]2C[C@H](NC(=O)C(F)(F)F)[C@H](O)[C@H](C)O2)O1` (mixture of isomers) [BCH2098, (1'-S,1-S,3-R) and (1'-S,1-R,3-S)-1-(6-hydroxy-1-(2',3',6'-trideoxy-3'-trifluoroacetamido,4-hydroxy-L-lyxopyranose)-5,10-dioxo-3,4,5,10 tetrahydronaphtho-[2,3-c]pyran-3-yl) propane-2-one], the VLB/OV3 turned out to be 4.
As for `CC(=O)O[C@@H]1[C@H](C)O[C@@H](O[C@@H]2O[C@@H](C(C)=O)CC3=C2C(=O)c2ccccc2C3=O)C(Br)[C@@H]1OC(C)=O` (stereo partly drawn) [BCH2099, (1'S,1S,3R)-methyl-(1-[2',6'-dideoxy-3',4'-diacetoxy-2'-bromo-L-lyxohexopyranose]-5,10-dioxo-3,4,5,10-tetrahydronaphtho-[2,3-c]-pyran-3-yl) ketone], the VLB/OV3 is 0.77-2.
`COC(=O)C1=CC2=C(CO1)C(=O)c1ccccc1C2=O` [BCH2830, 3-methoxy carbonyl-5,10-dioxo-5,10-dihydro-1H-naphtho-[2,3-c]-pyran]: the VLB/OV3 is reported as 1.52. Under “Homo sapiens”, the IC50 (as a rule, the midpoint of a concentration-inhibition curve) worked out at 10.8 µM.
Take `CO[C@H]1O[C@H](C(=O)O)CC2=C1C(=O)c1ccccc1C2=O` (relative stereo) [BCH2045, (1,3-trans)-1-methoxy-3-carboxyl-5,10-dioxo-3,4,5,10-tetrahydro-1H-naphtho-[2,3-c]-pyran]: the VLB/OV3 is 3.
Same read-out and setting: next, `CC(=O)[C@@H]1CC2=C(C(=O)c3ccccc3C2=O)[C@@H](O[C@@H]2O[C@@H](C)[C@@H](O)[C@@H](NC(=O)C(F)(F)F)C2I)O1` (stereo partly drawn) [BCH2023, (1'S,1R,3S)-methyl-(1-[2',3',6'-trideoxy-2'-iodo-3'-trifluoroacetamido-4'-hydroxy-L-lyxohexopyranose]-5,10-dioxo-3,4,5,10-tetrahydronaphtho-[2,3-c]-pyran-3-yl) ketone]: 4.39; `CO[C@@H]1O[C@H](C(=O)Nc2ccccc2)CC2=C1C(=O)c1ccccc1C2=O` (relative stereo) [BCH2042, (1,3-cis)-1-methoxy-3-N-anilinylcarbonyl-5,10-dioxo-3,4,5,10-tetrahydro-1H-naphtho-[2,3-c]-pyran]: 3.51.
Regarding `CC(=O)[C@@H]1CC2=C(C(=O)c3ccccc3C2=O)[C@@H](O[C@H]2C[C@H](NC(=O)C(F)(F)F)[C@H](I)[C@H](C)O2)O1` [BCH1620, (1'-S,1-R,3-S)-methyl-(1-[2',3',6'-trideoxy-3'-trifluoroacetamido-4'-iodo-L-lyxohexopyranose]-5,10-dioxo-3,4,5,10-tetrahydronaphtho-[2,3-c]-pyran-3-yl)-ketone], the VLB/OV3 came out at 51.31.
`CC(C)C(=O)[C@@H]1CC2=C(C(=O)c3ccccc3C2=O)[C@@H](O[C@H]2C[C@H](NC(=O)C(F)(F)F)[C@H](O)[C@H](C)O2)O1` [BCH2112, (1'S,1R,3S)-isopropyl-[1-(2',3',6'-trideoxy-3'-trifluoroacetamido-L-lyxohexopyranose)-5,10-dioxo-3,4,5,10-tetrahydro-1H-naphtho-[2,3-c]-pyranyl]-ketone]: the VLB/OV3 is on record as 15.96-17.
